Data from US6730675B2 (AstraZeneca AB, priority 1999, dated 2004).

Assays:
[1] = biological target: T1, NMDA receptor glycine site (Rattus norvegicus, UniProt P35439); assay: Test A: Inhibition of binding of [3H]-MDL105,519 to brain membranes; conditions: displacement of 1.2 nM [3H]MDL105,519, brain membranes
T1 construct: The rat brain membranes used in the experiments were obtained from Analytical Biological Services Inc; tissue Analytical Biological Services Inc; host or cells: rat brain membranes (cerebral cortex and hippocampus, male Sprague Dawley rats)
Excerpt: Test A: Inhibition of Binding of [^3H]-MDL105,519:
Binding of compounds to the NMDA receptor glycine site may be assessed by measuring the ability of test compounds to inhibit the binding of tritiated MDL105,519 to brain membranes bearing the receptor.
Briefly, fresh brain tissue including cerebral cortex and hippocampus from male Sprague Dawley rats was homogenized in 0.32 M sucrose and centrifuged at low speed to separate cellular membranes from other cellular components. The membranes were then washed 3 times using deionized water, followed by treatment with 0.04% Triton X-100. Finally, membranes were washed six times in 50 mM Tris citrate buffer, pH 7.4, and frozen at −80° C. until use.
[^3H]MDL105,519 (72 Ci/mmol) was purchased from Amersham. Cold MDL105,519 was purchased from Sigma/RBI. Binding assays were performed substantially in accordance with the protocol of B. M. Baron et al., J. Phannacol. […] On the day of the experiment, brain membranes were thawed at room temperature and suspended in 50 mM tris acetate buffer, pH 7.4 (“TAB”). Seventy-five micro grams per milliliter protein (by using the BioRad dye) were used for competition binding. The experiments were carried out using 96-well plates. […] Non specific binding was determined by using 100 μM of unlabeled MDL105,519. […] After incubation, unbound [^3H]MDL105,519 was removed by filtration onto GF/B Unifilter plates using a Packard harvester. Filters were washed four times with ice cold TAB (total of 1.2 mL buffer). The plates were dried overnight at room temperature and bound radioactivity was measured on a Packard TopCount after the addition of 45 μL per well of the MICROSCINT O.
Human Brain Membranes: Human brain membranes were obtained from Analytical Biological Services Inc., and assays were performed as described for rat membranes.
Data analysis: Data was analyzed using a Microsoft Excel spreadsheet and GraphPad Prizm software and potency of compounds is expressed as the Ki (nM).

[2] = system: CCI rats (thermal hyperalgesia); assay: Test C: Neuropathic pain model (Chronic Constriction Injury), thermal hyperalgesia paw-withdrawal test; format: in vivo, rat; conditions: oral
Excerpt: Test C: Neuropathic Pain Model (Chronic Constriction Injury): […]

SMILES | Ki [1] | Test C % Inh. (percent decrease of hyperalgesia) at MED ([2]; at the MED, compared to vehicle-treated animals) | Test C MED (minimum effective dose) ([2]; three times daily for 5 days, dose giving statistically significant decrease in hyperalgesia)
Cc1ccc(Cn2nc(O)c3[nH]c4cc(Cl)ccc4c(=O)c3c2=O)s1 [Ex. 9, 7-Chloro-4-hydroxy-2-(5-methylthien-2-ylmethyl)-1,2,5,10-tetrahydropyridazino[4,5-b]quinoline-1,10-dione] | 28 nM | – | –
Cc1[nH]cnc1Cn1nc(O)c2nc3cc(Cl)ccc3c(O)c2c1=O | 434 nM | – | –
Cc1c(Cn2nc(O)c3[nH]c4cc(Cl)ccc4c(=O)c3c2=O)sc2ccccc12 | 161 nM | – | –
Cc1ccsc1Cn1nc(O)c2[nH]c3cc(Cl)ccc3c(=O)c2c1=O [Ex. 2, 7-Chloro-4-hydroxy-2-[2-(3-methyl)thienylmethyl]-1,2,5,10-tetrahydropyridazino[4,5-b]quinoline-1,10-dione] | – | −15% | 30 mg/kg/day
Cc1cc(Cn2nc(O)c3[nH]c4cc(Cl)ccc4c(=O)c3c2=O)c(C)o1 [Ex. 1, 7-Chloro-4-hydroxy-2-[3-(2,5-dimethyl)furanylmethyl]-1,2,5,10-tetrahydropyridazino[4,5-b]quinoline-1,10-dione] | 24.8 nM | – | –

The remaining compounds from weak to strong by Ki [1], led by results:

Ki [1] | SMILES | Test C % Inh. (percent decrease of hyperalgesia) at MED ([2]; at the MED, compared to vehicle-treated animals) | Test C MED (minimum effective dose) ([2]; three times daily for 5 days, dose giving statistically significant decrease in hyperalgesia)
298 nM | O=c1c2ccc(Cl)cc2[nH]c2c(O)nn(Cc3ccc(-c4ccccc4Cl)o3)c(=O)c12 [Ex. 6, 7-Chloro-4-hydroxy-2-{[5-(2-chlorophenyl)(2-furyl)]methyl}-1,2,5,10-tetrahydropyridazino[4,5-b]quinoline-1,2-dione] | – | –
72 nM | COC(=O)c1ccc(Cn2nc(O)c3[nH]c4cc(Cl)ccc4c(=O)c3c2=O)o1 [Ex. 8, 7-Chloro-4-hydroxy-2-(5-methoxycarbonyl(furan-2-yl)methyl)-1,2,5,10-tetrahydropyirdazino[4,5-b]quinolin-1,10-dione] | – | –
28 nM | Cc1occc1Cn1nc(O)c2[nH]c3cc(Cl)ccc3c(=O)c2c1=O [Ex. 4, 7-Chloro-4-hydroxy-2-[(2-methyl(furan-3-yl))methyl]-1,2,5,10-tetrahydropyridazinol[4,5-b]quinonline-1,10-dione] | – | –
